Data published in ChEMBL document CHEMBL5136998, “Chasing a Breath of Fresh Air in Cystic Fibrosis (CF): Therapeutic Potential of Selective HDAC6 Inhibitors to Tackle Multiple Pathways in CF Pathophysiology” (J Med Chem, 2022).

Experiments:
[1] = biological target: T1, Protein deacetylase HDAC6 (Homo sapiens, UniProt Q9UBN7); experiment: Inhibition of HDAC6 (unknown origin)
T1 sequence (Q9UBN7 whole entry): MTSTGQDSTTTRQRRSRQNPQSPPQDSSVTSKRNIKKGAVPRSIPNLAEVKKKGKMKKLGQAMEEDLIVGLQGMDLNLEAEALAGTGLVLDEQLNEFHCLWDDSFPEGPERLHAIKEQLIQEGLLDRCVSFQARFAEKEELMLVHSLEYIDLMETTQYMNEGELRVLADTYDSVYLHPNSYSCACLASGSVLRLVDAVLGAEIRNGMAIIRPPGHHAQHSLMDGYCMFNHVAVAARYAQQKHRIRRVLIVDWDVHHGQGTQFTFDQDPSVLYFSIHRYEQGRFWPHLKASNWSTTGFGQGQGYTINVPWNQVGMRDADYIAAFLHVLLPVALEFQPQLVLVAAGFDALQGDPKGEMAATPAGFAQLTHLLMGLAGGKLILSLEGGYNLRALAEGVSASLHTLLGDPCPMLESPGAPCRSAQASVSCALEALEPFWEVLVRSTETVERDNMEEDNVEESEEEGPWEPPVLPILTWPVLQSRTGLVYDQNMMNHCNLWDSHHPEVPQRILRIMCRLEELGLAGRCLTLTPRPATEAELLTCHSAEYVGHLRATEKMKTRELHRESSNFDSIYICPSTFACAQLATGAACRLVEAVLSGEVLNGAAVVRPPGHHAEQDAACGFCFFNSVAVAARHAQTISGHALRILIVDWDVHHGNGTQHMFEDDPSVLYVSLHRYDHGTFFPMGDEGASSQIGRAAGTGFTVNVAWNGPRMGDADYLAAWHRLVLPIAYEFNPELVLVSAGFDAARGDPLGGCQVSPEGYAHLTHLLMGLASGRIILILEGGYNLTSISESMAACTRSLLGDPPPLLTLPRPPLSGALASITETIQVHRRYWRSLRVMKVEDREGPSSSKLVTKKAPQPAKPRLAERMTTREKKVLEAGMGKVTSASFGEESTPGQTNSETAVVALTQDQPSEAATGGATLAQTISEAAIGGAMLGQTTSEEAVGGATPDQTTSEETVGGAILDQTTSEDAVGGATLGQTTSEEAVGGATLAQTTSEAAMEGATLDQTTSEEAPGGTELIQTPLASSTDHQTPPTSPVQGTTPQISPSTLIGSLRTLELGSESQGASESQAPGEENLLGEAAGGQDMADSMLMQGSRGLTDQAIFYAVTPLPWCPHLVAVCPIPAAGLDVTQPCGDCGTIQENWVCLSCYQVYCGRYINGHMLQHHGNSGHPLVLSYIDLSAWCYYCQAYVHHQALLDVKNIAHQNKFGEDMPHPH

Histone deacetylase 8 = biological target: T2, Histone deacetylase 8 (Homo sapiens, UniProt Q9BY41); experiment: Inhibition of HDAC8 (unknown origin)
T2 sequence (Q9BY41 whole entry): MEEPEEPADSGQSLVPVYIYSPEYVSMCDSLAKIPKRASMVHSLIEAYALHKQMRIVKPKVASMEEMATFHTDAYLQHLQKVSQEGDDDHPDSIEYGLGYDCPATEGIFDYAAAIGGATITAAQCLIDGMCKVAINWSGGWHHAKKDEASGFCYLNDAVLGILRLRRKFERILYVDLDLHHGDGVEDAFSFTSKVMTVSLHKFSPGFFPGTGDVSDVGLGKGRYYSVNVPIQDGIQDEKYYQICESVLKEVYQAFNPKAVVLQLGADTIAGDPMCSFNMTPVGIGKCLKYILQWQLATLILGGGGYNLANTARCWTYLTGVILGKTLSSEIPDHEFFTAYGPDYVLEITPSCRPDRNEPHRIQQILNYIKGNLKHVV

Histone deacetylase 3 = Histone deacetylase 3 (Homo sapiens, UniProt O15379); experiment: Inhibition of HDAC3 (unknown origin)
Sequence of Histone deacetylase 3 (O15379 whole entry): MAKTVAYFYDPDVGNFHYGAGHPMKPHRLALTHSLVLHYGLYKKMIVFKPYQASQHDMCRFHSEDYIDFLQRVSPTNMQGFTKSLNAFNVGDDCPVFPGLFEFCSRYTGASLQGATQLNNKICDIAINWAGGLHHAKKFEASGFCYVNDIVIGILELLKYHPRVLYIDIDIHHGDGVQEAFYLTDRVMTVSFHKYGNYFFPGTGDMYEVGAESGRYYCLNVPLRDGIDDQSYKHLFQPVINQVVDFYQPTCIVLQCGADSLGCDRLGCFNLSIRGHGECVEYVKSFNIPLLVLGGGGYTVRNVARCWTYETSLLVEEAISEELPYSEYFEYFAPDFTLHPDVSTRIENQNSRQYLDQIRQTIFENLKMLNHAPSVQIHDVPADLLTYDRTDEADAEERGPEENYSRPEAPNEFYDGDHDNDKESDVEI

Histone deacetylase 2 [2] = biological target: T3, Histone deacetylase 2 (Homo sapiens, UniProt Q92769)
T3 sequence (Q92769 whole entry): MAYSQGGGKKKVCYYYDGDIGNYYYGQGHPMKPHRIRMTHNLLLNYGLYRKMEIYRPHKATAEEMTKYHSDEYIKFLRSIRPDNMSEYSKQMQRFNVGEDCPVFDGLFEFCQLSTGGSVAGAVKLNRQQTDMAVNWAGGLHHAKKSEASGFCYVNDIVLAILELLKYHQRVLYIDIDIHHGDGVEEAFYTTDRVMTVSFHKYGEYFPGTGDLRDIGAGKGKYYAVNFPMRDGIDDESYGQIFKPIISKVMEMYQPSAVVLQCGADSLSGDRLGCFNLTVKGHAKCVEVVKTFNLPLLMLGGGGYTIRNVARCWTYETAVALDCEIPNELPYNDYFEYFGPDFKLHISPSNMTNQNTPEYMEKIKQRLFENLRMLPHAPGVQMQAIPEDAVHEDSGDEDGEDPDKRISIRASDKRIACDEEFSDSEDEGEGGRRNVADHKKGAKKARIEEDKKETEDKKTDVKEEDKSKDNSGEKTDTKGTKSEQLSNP

Histone deacetylase 1 [3] = biological target: T4, Histone deacetylase 1 (Homo sapiens, UniProt Q13547); experiment: Inhibition of HDAC1 (unknown origin)
T4 sequence (Q13547 whole entry): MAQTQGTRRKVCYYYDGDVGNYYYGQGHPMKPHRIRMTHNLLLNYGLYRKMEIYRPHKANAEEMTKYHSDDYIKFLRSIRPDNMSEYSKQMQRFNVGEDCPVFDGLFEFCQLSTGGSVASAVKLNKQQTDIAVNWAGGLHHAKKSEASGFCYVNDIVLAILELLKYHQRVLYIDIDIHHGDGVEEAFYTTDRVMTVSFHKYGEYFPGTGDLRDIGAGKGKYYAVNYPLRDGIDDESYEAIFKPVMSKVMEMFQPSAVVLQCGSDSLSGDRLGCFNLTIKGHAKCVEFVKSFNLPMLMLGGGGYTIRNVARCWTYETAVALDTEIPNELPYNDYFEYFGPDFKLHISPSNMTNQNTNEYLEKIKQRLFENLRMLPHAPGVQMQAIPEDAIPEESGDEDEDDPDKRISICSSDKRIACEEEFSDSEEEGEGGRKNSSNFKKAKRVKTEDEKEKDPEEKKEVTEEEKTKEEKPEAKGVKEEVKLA

Histone deacetylase 2 [4] = biological target: T3, Histone deacetylase 2; experiment: Inhibition of human HDAC2 at 100 uM relative to control
[5] = biological target: Histone deacetylase 4 (Homo sapiens) (UniProt P56524); experiment: Inhibition of human HDAC4 at 100 uM relative to control
Sequence of Histone deacetylase 4 (Homo sapiens) (P56524 whole entry): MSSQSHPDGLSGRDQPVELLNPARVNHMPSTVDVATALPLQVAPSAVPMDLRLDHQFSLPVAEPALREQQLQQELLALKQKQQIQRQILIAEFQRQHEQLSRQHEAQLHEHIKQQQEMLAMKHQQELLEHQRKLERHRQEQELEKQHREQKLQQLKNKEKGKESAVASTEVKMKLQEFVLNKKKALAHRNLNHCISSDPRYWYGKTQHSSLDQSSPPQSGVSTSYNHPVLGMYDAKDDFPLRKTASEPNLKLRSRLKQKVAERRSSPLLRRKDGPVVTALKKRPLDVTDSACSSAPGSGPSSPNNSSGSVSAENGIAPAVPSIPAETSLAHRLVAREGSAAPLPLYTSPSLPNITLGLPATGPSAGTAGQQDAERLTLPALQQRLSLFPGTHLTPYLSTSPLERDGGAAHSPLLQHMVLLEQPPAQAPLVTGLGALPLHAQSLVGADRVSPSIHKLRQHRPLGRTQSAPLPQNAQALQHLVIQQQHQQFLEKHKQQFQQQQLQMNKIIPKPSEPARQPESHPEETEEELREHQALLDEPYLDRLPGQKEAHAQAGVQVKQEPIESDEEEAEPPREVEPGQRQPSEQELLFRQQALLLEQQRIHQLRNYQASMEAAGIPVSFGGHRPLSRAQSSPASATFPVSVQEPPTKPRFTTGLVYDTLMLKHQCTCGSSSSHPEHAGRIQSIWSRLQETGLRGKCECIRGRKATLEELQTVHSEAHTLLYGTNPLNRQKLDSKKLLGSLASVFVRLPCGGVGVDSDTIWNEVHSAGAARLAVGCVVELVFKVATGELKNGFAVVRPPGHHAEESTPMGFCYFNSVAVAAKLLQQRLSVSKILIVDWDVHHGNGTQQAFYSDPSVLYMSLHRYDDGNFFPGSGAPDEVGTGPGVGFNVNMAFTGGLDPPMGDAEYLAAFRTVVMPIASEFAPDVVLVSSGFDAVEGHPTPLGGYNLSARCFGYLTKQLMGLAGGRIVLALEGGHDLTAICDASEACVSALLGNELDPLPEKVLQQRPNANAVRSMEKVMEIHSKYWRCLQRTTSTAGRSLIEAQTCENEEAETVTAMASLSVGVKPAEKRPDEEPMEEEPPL

Histone deacetylase 1 [6] = biological target: T4, Histone deacetylase 1; experiment: Inhibition of HDAC1 derived from human HeLa cell nuclear extract at 100 uM incubated for 2 hrs relative to control; assay type: cell-free
[7] = biological target: T5, Protein deacetylase HDAC6 (Homo sapiens) (UniProt Q9UBN7); experiment: Inhibition of HDAC6 derived from human HeLa cell nuclear extract at 100 uM incubated for 2 hrs relative to control; assay type: cell-free
T5 sequence (whole entry): T1 sequence (Q9UBN7 whole entry)

Histone deacetylase 7 = biological target: T6, Histone deacetylase 7 (Homo sapiens, UniProt Q8WUI4); experiment: Inhibition of HDAC7 (unknown origin)
T6 sequence (Q8WUI4 whole entry): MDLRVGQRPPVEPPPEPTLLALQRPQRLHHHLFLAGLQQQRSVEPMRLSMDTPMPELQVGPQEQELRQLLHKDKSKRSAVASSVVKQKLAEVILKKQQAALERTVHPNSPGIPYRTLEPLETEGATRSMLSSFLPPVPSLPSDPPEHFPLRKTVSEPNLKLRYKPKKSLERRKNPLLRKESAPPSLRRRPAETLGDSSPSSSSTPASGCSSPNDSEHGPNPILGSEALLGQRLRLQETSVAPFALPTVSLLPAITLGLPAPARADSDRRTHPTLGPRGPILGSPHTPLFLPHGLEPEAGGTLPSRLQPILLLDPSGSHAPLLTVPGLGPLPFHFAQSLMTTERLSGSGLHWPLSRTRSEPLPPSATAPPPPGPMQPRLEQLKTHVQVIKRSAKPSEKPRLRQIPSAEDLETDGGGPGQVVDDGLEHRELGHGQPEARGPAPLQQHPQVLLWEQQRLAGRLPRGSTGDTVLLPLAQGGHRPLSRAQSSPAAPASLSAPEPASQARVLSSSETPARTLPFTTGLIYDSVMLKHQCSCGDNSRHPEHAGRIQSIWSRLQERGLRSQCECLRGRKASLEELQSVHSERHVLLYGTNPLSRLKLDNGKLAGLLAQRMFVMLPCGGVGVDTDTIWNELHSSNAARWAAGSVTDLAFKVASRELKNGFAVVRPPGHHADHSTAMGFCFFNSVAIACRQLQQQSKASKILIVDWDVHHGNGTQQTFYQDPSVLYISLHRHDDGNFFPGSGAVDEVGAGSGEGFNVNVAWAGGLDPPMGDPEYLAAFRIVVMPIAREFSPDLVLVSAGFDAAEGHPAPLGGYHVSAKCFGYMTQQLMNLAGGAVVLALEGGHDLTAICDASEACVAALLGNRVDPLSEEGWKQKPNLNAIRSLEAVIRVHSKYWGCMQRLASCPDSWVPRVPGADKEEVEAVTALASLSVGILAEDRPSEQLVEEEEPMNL

[8] = Inhibition of human recombinant HDAC3/NcoR2 using RHKKAc as substrate
Histone deacetylase 1 [9] = biological target: T4, Histone deacetylase 1; experiment: Inhibition of human recombinant HDAC1 using fluorogenic substrate

CC(C)(C)OC(=O)Nc1cccc(C(=O)/C=C/c2ccc(/C=C/C(=O)NO)cc2)c1
IC50 [1]: 0.011 µM | IC50 (Histone deacetylase 8): 1.2 µM | IC50 (Histone deacetylase 3): 10.8 µM | IC50 (Histone deacetylase 2 [2]): 2.1 µM

C[C@@H]1CN(Cc2ccc(C(=O)NO)cc2)C[C@H](C)N1Cc1cccc(Cl)c1
IC50 (Histone deacetylase 1 [3]): 11.4 µM | IC50 [1]: 0.041 µM

Oc1ccc(/C=C/c2cc(O)cc(O)c2)cc1
inhibition (Histone deacetylase 2 [4]): 21% | inhibition [5]: 23% | inhibition (Histone deacetylase 1 [6]): 39% | inhibition [7]: 32%

CCCC(=O)O [BUTYRIC ACID]
IC50 (Histone deacetylase 1 [3]): 300 µM | IC50 (Histone deacetylase 7): 300 µM | IC50 (Histone deacetylase 2 [2]): 400 µM

CN1CCc2c(c3ccccc3n2Cc2ccc(C(=O)NO)cc2)C1 [TUBASTATIN A]
IC50 [8]: > 30 µM

O=C(O)CCCc1ccccc1 [SODIUM PHENYLBUTYRATE]
IC50 (Histone deacetylase 1 [9]): 162 µM
